Laboratory results taken from patent publication US9493478B2, “Fused ring compound containing furan or salt thereof and pharmaceutical composition comprising same” (YUHAN CORPORATION, priority 2012, dated 2016).

Key:
Assay type in all cases: biochemical
PI3Kδ (p110δ/p85α)(h) = PI3Kδ (p110δ/p85α)(h) (Homo sapiens, UniProt O00329); assay: Assay for phosphatidylinositol 3-kinase delta (PI3Kδ) activity, PI3K-HTRF kit; details: TR-FRET; enzyme 0.725 μg/ml, 10 μM PIP2, 10 μM ATP
Procedure: [The source words this procedure for another target and says it was used here with some conditions changed.] (§1) The compounds of the present invention were assayed for the activity of phosphatidylinositol 3-kinase gamma (PI3Kγ) by using a PI3K enzyme-homogenous time resolved fluorescence (PI3K-HTRF) kit, which is available from Upstate (Millipore Co, Billerica, Mass., USA).
(§2) Three kinds of buffer solutions including a phosphorylation reaction solution (a reaction buffer containing 40 mM MgCl2 which is available from Upstate was diluted 4 times and added with 5 mM DTT), a stop solution (STOP A and B solutions which are available from Upstate were mixed at a ratio of 3:1) and a fluorescence detection solution (Detection solutions A, B and C which are available from Upstate were mixed at a ratio of 1:1:18) were prepared. 1 mM of PIP2 substrate (phosphatidylinositol 4,5 biphosphate; Upstate), PI3Kγ (#14-558; Upstate) enzyme and 10 mM ATP (Sigma Aldrich Co., St. Louis, Mo., USA) were prepared. Each of PI3Kγ, 1 mM PIP2 and 10 mM ATP was diluted to 2.9 μg/ml (final reaction concentration: 1.45 μg/ml), 20 μM (final reaction concentration: 10 μM) and 40 μM (final reaction concentration: 10 μM), respectively. The buffer solution used for dilution and preparation process was the phosphorylation reaction solution. The stop solution was used for the termination of phosphorylation reaction, and the fluorescence detection solution was used for the detection of time-resolved fluorescence signals.
(§3) Each test sample was transferred to a 384 well low flange white flat bottom microplate (#3572, Corning Life Sciences, Lowell, Mass., USA) by using a multi 8-channel (Pipetman Neo multi 8×20, Gilson, Middleton, Wis., USA) to make a final phosphorylation reaction volume of 20 μl per each well. For the negative control, 5 μl of 14.4% DMSO and 10 μl of PIP2 substration solution were used, and 5 μl of 14.4% DMSO and 10 μl of PIP2/PI3Kγ mixed solution were used as the positive control. For the test group, 5 μl of a solution prepared by dissolving the compound obtained in Example in DMSO and 10 μl of PIP2/PI3Kγ mixed solution were used. Before the initiation of the phosphorylation reaction, sample compounds were pretreated with the enzyme for approximately 10 minutes, and then the phosphorylation reaction was induced by adding 5 μl of ATP. Since each of the test compound and ATP takes up 25% of the total volume, and PIP2 and PI3Kγ take up 50% of the total volume during the reaction, each solution was concentrated 4 and 2 times, respectively, before mixing the solutions. Subsequently, the test sample was gently shook for 3 minutes and subjected to a phosphorylation reaction for 90 minutes at room temperature, which was then added with 5 μl of the stop solution to terminate the phosphorylation reaction. In order to induce a time-resolved fluorescence reaction, 5 μl of the fluorescence detection solution was added to the sample. The fluorescence detection solution contains biotin-phosphatidylinositol 3,4,5-triphosphate (PIP3), streptavidin-labeled Allopycocyanin (APC) and europium-labeled Pleckstrin homology domain (the PIP3 binds to PH domain), and the time-resolved fluorescence reaction is induced by a series of reaction of PH domain and PIP3, and biotin and streptavidin. The sample was left to stand for 6 hours at room temperature, and the time-resolved fluorescence resonance energy transfer (TR-FRET) rate was measured (emission wavelength: 665 nm, 620 nm, excitation wavelength: 340 nm) by using a Flexstation3 Micro plate reader (Molecular Devices, USA). TR-FRET Rate and TR-Inhibition Rate were calculated based on Equations 1 and 2 below, and the results are expressed in IC50, which is the concentration of a compound that inhibits 50% of PI3Kγ activity in vitro. TR-FRET Rate=(665 nm emission wavelength/620 nm emission wavelength)×10000 <Equation 1> TR-FRET Inhibition Rate=[(TR-FRET Rate of Sample−TR-FRET Rate of Negative Control)/(TR-FRET Rate of Positive Control−TR-FRET Rate of Negative Control)]×100 <Equation 2> […]

PI3Kα (p110α/p85α)(h) = PI3Kα (p110α/p85α)(h) (Homo sapiens, UniProt P42336); assay: Assay for phosphatidylinositol 3-kinase alpha (PI3Kα) activity, PI3K-HTRF kit; details: TR-FRET; enzyme 0.3625 μg/ml, 10 μM PIP2, 10 μM ATP
Procedure: [The source words this procedure for another target and says it was used here with some conditions changed.] as §1, §2
(§4) Each test sample was transferred to a 384 well low flange white flat bottom microplate (#3572, Corning Life Sciences, Lowell, Mass., USA) by using a multi 8-channel (Pipetman Neo multi 8×20, Gilson, Middleton, Wis., USA) to make a final phosphorylation reaction volume of 20 μl per each well. For the negative control, 5 μl of 14.4% DMSO and 10 μl of PIP2 substration solution were used, and 5 μl of 14.4% DMSO and 10 μl of PIP2/PI3Kγ mixed solution were used as the positive control. For the test group, 5 μl of a solution prepared by dissolving the compound obtained in Example in DMSO and 10 μl of PIP2/PI3Kγ mixed solution were used. Before the initiation of the phosphorylation reaction, sample compounds were pretreated with the enzyme for approximately 10 minutes, and then the phosphorylation reaction was induced by adding 5 μl of ATP. Since each of the test compound and ATP takes up 25% of the total volume, and PIP2 and PI3Kγ take up 50% of the total volume during the reaction, each solution was concentrated 4 and 2 times, respectively, before mixing the solutions. Subsequently, the test sample was gently shook for 3 minutes and subjected to a phosphorylation reaction for 90 minutes at room temperature, which was then added with 5 μl of the stop solution to terminate the phosphorylation reaction. In order to induce a time-resolved fluorescence reaction, 5 μl of the fluorescence detection solution was added to the sample. The fluorescence detection solution contains biotin-phosphatidylinositol 3,4,5-triphosphate (PIP3), streptavidin-labeled Allopycocyanin (APC) and europium-labeled Pleckstrin homology domain (the PIP3 binds to PH domain), and the time-resolved fluorescence reaction is induced by a series of reaction of PH domain and PIP3, and biotin and streptavidin. The sample was left to stand for 6 hours at room temperature, and the time-resolved fluorescence resonance energy transfer (TR-FRET) rate was measured (emission wavelength: 665 nm, 620 nm, excitation wavelength: 340 nm) by using a Flexstation3 Micro plate reader (Molecular Devices, USA). TR-FRET Rate and TR-Inhibition Rate were calculated based on Equations 1 and 2 below, and the results are expressed in IC50, which is the concentration of a compound that inhibits 50% of PI3Kγ activity in vitro. TR-FRET Rate=(665 nm emission wavelength/620 nm emission wavelength)×10000 <Equation 1> TR-FRET Inhibition Rate=[(TR-FRET Rate of Sample−TR-FRET Rate of Negative Control)/(TR-FRET Rate of Positive Control−TR-FRET Rate of Negative Control)]×100 <Equation 2>

PI3Kγ (p120γ)(h) = PI3Kγ (p120γ)(h) (Homo sapiens, UniProt P48736); assay: Assay for phosphatidylinositol 3-kinase gamma (PI3Kγ) activity, PI3K-HTRF kit; details: TR-FRET; enzyme 1.45 μg/ml, 10 μM PIP2, 10 μM ATP
Procedure: as §1, §2, §4

PI3K β (p110β/p85α)(h) = PI3K β (p110β/p85α)(h) (Homo sapiens, UniProt P42338); assay: Assay for phosphatidylinositol 3-kinase beta (PI3Kβ) activity, PI3K-HTRF kit; details: TR-FRET; enzyme 0.725 μg/ml, 10 μM PIP2, 10 μM ATP
Procedure: [The source words this procedure for another target and says it was used here with some conditions changed.] as §1, §2, §3

Sequence of PI3Kγ (p120γ)(h) (P48736 whole entry): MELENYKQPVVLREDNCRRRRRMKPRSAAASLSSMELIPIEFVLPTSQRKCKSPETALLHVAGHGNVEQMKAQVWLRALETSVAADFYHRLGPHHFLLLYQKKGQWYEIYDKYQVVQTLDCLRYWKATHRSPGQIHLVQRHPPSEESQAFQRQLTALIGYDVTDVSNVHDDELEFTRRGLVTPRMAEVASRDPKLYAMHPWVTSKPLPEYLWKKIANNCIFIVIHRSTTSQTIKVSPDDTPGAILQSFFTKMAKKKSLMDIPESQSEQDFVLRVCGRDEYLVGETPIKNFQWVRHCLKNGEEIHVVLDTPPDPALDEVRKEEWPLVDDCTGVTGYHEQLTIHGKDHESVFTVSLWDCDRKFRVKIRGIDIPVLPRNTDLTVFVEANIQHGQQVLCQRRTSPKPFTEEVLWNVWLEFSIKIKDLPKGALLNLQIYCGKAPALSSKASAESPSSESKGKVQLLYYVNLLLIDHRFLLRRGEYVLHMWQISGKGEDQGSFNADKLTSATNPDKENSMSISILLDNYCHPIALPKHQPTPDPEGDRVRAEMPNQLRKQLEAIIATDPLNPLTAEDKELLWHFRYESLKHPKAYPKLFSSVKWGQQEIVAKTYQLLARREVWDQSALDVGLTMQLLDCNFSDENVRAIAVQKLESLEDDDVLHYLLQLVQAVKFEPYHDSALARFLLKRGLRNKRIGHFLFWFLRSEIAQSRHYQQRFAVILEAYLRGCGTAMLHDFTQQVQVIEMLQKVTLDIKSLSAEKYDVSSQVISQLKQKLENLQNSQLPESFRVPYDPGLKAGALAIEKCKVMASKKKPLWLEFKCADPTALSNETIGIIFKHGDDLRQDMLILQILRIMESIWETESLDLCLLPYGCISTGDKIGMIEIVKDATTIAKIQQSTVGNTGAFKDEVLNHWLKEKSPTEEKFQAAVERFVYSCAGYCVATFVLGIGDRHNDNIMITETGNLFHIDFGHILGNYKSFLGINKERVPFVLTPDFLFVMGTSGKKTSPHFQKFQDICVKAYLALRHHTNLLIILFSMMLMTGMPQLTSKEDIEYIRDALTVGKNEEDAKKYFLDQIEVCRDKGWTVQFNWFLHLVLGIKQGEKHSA
Sequence of PI3Kα (p110α/p85α)(h) (P42336 whole entry): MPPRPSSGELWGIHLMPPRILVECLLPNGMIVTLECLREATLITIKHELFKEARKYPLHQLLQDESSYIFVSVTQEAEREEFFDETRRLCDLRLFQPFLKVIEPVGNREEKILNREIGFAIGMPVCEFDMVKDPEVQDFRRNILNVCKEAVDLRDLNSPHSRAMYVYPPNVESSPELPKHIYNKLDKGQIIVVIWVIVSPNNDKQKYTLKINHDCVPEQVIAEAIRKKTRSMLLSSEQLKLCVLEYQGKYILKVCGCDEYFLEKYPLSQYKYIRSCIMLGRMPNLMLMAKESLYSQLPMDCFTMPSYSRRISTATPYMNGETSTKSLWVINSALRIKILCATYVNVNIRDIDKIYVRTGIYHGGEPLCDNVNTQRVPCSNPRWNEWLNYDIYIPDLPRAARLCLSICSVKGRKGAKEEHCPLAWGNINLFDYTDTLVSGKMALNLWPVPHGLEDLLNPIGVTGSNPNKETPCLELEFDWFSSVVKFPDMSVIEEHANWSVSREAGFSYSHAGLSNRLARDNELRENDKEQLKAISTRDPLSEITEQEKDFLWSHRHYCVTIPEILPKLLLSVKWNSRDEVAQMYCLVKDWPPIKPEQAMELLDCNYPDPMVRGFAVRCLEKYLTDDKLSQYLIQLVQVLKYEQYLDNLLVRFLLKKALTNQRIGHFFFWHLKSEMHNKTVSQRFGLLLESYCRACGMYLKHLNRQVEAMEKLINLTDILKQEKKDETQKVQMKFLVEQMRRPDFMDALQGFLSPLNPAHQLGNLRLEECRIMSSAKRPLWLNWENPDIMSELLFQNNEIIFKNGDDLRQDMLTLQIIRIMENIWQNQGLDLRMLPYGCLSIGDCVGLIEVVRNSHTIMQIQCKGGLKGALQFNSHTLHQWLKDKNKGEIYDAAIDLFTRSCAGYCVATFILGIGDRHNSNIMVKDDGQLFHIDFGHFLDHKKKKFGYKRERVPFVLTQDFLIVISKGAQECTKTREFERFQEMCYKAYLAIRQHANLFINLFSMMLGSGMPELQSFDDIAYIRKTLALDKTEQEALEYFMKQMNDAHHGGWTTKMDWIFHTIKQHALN
Sequence of PI3Kα (p110α/p85α)(h) (P27986 whole entry partner): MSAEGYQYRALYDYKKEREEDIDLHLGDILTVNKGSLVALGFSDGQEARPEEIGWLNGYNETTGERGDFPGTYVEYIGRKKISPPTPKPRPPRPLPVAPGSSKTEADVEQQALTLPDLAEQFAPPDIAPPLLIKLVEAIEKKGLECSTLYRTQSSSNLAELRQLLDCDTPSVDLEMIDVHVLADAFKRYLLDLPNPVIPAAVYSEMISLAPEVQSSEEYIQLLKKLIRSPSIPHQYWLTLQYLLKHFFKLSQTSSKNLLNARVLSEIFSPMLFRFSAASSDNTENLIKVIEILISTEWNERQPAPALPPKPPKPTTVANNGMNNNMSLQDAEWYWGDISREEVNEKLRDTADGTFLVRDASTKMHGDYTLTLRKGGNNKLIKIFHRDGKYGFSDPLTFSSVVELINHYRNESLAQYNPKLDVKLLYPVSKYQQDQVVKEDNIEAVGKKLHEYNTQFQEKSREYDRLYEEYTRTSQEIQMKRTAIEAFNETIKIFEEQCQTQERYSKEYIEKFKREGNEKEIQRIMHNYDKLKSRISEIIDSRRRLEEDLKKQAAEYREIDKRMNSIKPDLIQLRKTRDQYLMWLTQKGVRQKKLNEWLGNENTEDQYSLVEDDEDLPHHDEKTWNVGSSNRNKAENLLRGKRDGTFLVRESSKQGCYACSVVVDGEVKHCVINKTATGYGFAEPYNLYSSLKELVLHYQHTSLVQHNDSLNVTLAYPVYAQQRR
Sequence of PI3Kδ (p110δ/p85α)(h) (O00329 whole entry): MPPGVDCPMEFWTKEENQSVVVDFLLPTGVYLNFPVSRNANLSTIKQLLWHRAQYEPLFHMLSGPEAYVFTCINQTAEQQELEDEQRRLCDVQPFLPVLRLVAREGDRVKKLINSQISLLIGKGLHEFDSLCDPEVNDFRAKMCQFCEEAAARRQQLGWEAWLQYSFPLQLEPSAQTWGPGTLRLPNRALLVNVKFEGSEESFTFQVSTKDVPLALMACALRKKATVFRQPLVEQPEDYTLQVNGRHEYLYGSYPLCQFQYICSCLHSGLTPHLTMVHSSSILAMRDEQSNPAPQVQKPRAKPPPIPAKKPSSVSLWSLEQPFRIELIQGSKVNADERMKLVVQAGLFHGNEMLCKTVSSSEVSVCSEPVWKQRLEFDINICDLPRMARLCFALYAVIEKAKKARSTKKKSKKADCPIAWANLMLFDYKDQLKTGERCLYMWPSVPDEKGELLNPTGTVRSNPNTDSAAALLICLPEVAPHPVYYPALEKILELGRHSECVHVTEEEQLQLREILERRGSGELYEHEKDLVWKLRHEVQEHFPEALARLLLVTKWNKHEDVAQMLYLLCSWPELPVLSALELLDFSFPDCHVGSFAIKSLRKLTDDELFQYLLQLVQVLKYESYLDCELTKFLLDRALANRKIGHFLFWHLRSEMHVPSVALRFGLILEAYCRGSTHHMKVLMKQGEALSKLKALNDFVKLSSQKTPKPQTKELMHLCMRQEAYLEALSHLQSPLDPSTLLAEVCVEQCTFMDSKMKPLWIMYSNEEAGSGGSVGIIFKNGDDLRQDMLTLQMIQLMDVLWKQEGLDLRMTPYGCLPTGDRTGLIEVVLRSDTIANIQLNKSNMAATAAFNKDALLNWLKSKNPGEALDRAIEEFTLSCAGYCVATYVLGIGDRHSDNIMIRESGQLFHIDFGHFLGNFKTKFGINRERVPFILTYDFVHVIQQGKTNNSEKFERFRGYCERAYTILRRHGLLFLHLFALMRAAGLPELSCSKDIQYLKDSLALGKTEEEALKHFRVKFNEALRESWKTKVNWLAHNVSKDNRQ
Sequence of PI3Kδ (p110δ/p85α)(h) (P27986 whole entry partner): as the sequence (P27986 whole entry partner) above
Sequence of PI3K β (p110β/p85α)(h) (P42338 whole entry): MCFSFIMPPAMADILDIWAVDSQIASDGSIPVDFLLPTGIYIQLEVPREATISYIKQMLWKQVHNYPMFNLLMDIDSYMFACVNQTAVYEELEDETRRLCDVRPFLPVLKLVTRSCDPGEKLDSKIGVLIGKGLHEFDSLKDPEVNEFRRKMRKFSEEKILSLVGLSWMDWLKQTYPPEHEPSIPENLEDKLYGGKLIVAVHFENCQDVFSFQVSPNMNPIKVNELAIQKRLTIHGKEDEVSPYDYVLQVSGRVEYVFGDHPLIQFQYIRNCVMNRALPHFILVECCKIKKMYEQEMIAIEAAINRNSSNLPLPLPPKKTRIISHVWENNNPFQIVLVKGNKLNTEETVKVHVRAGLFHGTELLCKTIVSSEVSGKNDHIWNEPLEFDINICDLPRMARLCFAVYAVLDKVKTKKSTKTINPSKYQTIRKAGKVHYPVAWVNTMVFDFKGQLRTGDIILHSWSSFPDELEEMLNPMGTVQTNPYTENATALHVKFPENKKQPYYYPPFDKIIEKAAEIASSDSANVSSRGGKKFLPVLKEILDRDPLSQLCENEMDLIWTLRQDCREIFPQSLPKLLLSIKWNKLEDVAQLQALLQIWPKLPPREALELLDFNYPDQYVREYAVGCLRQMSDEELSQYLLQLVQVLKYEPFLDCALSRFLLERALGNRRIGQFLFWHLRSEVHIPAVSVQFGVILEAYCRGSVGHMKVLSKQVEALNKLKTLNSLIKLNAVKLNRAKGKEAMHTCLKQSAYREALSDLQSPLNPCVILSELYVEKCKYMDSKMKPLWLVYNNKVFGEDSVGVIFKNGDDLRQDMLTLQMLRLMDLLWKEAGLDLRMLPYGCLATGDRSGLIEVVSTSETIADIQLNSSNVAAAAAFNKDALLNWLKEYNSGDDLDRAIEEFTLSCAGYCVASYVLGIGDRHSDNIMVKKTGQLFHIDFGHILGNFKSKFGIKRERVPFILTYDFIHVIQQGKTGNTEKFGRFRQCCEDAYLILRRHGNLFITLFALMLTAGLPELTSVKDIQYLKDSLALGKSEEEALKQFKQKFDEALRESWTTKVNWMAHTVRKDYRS
Sequence of PI3K β (p110β/p85α)(h) (P27986 whole entry partner): as the sequence (P27986 whole entry partner) above

| Compound | IC50 (PI3Kδ (p110δ/p85α)(h)) [nM] | IC50 (PI3Kα (p110α/p85α)(h)) [nM] | IC50 (PI3Kγ (p120γ)(h)) [nM] | IC50 (PI3K β (p110β/p85α)(h)) [nM] |
| --- | --- | --- | --- | --- |
| 2-Thioxo-5-[{7-(m-tolylethynyl)furo[3,2-c]pyridin-2-yl}methyl]thiazolidin-4-one [Example 546] | > 10000 | 360 | 3 | 5500 |
| 5-[{7-(p-Tolylethynyl)furo[3,2-c]pyridin-2-yl}methyl]thiazolidine-2,4-dione [Example 520] | > 10000 | 15 | 11 | 9740 |
| O=C1NC(=O)/C(=C/c2cc3cncc(-c4ccc(F)cc4F)c3o2)S1 [Example 2, (Z)-5-[{7-(2,4-Difluorophenyl)furo[3,2-c]pyridin-2-yl}methylene]thiazolidine-2,4-dione] | 117 | 35 | 654 | 208 |
| O=C1NC(=O)/C(=C/c2cc3cncc(-c4cccc(OCc5ccccc5)c4)c3o2)S1 [Example 6, (Z)-5-([7-{3-(Benzyloxy)phenyl}furo[3,2-c]pyridin-2-yl]methylene)thiazolidine-2,4-dione] | 2350 | 2 | 14 | 3 |
| O=C1NC(=O)/C(=C/c2cc3cncc(-c4ccc(O)nc4)c3o2)S1 [Example 11, (Z)-5-[{7-(6-Hydroxypyridin-3-yl)furo[3,2-c]pyridin-2-yl}methylene]thiazolidine-2,4-dione] | 168 | 8 | 15 | 48 |
| Cn1cc(-c2cncc3cc(/C=C4\SC(=O)NC4=O)oc23)cn1 [Example 12, (Z)-5-[{7-(1-Methyl-1H-pyrazol-4-yl)furo[3,2-c]pyridin-2-yl}methylene]thiazolidine-2,4-dione] | > 10000 | 7 | 28 | 572 |
| O=C1NC(=O)/C(=C/c2cc3cncc(-c4cc5ccccc5s4)c3o2)S1 [Example 14, (Z)-5-[{7-(Benzo[b]thiophen-2-yl)furo[3,2-c]pyridin-2-yl}methylene]thiazolidine-2,4-dione] | 149 | 6 | 29 | > 10000 |
| CSc1ccc(-c2cncc3cc(/C=C4\SC(=O)NC4=O)oc23)cc1 [Example 23, (Z)-5-([7-{4-(Methylthio)phenyl}furo[3,2-c]pyridin-2-yl]methylene)thiazolidine-2,4-dione] | > 10000 | 43 | 9 | > 10000 |
| COc1ccc(-c2cncc3cc(/C=C4\SC(=O)NC4=O)oc23)cc1 [Example 25, (Z)-5-[{7-(4-Methoxyphenyl)furo[3,2-c]pyridin-2-yl}methylene]thiazolidine-2,4-dione] | > 10000 | 6 | 5 | > 10000 |
| COc1ccc(-c2cncc3cc(/C=C4\SC(=O)NC4=O)oc23)cn1 [Example 30, (Z)-5-[{7-(6-Methoxypyridin-3-yl)furo[3,2-c]pyridin-2-yl}methylene]thiazolidine-2,4-dione] | 460 | 40 | 6 | 1370 |
| COc1ccc(-c2cncc3cc(/C=C4\SC(=O)NC4=O)oc23)cc1OC [Example 33, (Z)-5-[{7-(3,4-Dimethoxyphenyl)furo[3,2-c]pyridin-2-yl}methylene]thiazolidine-2,4-dione] | 37 | 8 | 9 | 77 |
| O=C1NC(=O)/C(=C/c2cc3cncc(-c4ccc5c(c4)OCO5)c3o2)S1 [Example 36, (Z)-5-[{7-(Benzo[d][1,3]dioxol-5-yl)furo[3,2-c]pyridin-2-yl}methylene]thiazolidine-2,4-dione] | > 10000 | 86 | 154 | 14 |
| CS(=O)(=O)c1ccc(-c2cncc3cc(/C=C4\SC(=O)NC4=O)oc23)cc1 [Example 40, (Z)-5-([7-{4-(Methylsulfonyl)phenyl}furo[3,2-c]pyridin-2-yl]methylene)thiazolidine-2,4-dione] | 590 | 8 | 28 | 177 |
| CSc1ccc(-c2cncc3cc(/C=C4\SC(=O)NC4=O)oc23)cn1 [Example 41, (Z)-5-([7-{6-(Methylthio)pyridin-3-yl}furo[3,2-c]pyridin-2-yl]methylene)thiazolidine-2,4-dione] | 322 | 12 | 13 | 100 |
| CCOc1ccc(-c2cncc3cc(/C=C4\SC(=O)NC4=O)oc23)cc1Cl [Example 51, (Z)-5-[{7-(3-Chloro-4-ethoxyphenyl)furo[3,2-c]pyridin-2-yl}methylene]thiazolidine-2,4-dione] | > 10000 | 5 | 12 | > 10000 |
| COc1c(C)cc(-c2cncc3cc(/C=C4\SC(=O)NC4=O)oc23)cc1C [Example 73, (Z)-5-[{7-(4-Methoxy-3,5-dimethylphenyl)furo[3,2-c]pyridin-2-yl}methylene]thiazolidine-2,4-dione] | > 10000 | 10 | 10 | > 10000 |
| O=C1NC(=O)/C(=C/c2cc3cncc(-c4cccc(OCC(F)(F)F)c4)c3o2)S1 [Example 110, (Z)-5-([7-{3-(2,2,2-Trifluoroethoxyl)phenyl}furo[3,2-c]pyridin-2-yl]methylene)thiazolidine-2,4-dione] | 4230 | – | 96 | 293 |
